Laboratory results from patent US12268683B2, “Compounds and methods for synergistic activation of M channels” (THE REGENTS OF THE UNIVERSITY OF CALIFORNIA, priority 2018, dated 2025).
Entries after “also recorded” stand apart in the source; their conditions may differ. Like-named read-outs stand apart in the source and are kept apart here.

How the values were obtained:
Type in all cases: cell-based
KCNQ2/3 = KCNQ2/3 (Homo sapiens, UniProt O43525+O43526); assay: TEVC of heteromeric KCNQ2/3 channels expressed in Xenopus laevis oocytes
Description: (§1) cRNA transcripts encoding human KCNA1, KCNQ1, KCNQ2, KCNQ3, KCNQ4, or KCNQ5 were generated by in vitro transcription using the T7 polymerase message machine kit (Thermo Fisher Scientific), after vector linearization, from cDNA sub-cloned into plasmids incorporating X. laevis β-globin 5′ and 3′ UTRs flanking the coding region to enhance translation and cRNA stability. cRNA was quantified by spectrophotometry. Mutant cDNAs were generated by site-directed mutagenesis using a QuikChange kit according to manufacturer's protocol (Stratagene, San Diego, Calif.) and corresponding cRNAs prepared as above. Defolliculated stage V and VI X. laevis oocytes (Ecocyte Bioscience, Austin, Tex.) were injected with Kv channel a subunit cRNAs (10 ng total per oocyte). Oocytes were incubated at 16° C. in Barth's saline solution (Ecocyte) containing penicillin and streptomycin, with daily washing, for 3-5 days prior to two-electrode voltage-clamp (TEVC) recording.
TEVC recording was performed at room temperature with an OC-725C amplifier (Warner Instruments, Hamden, Conn.) and pClamp10.2 software (Molecular Devices, Sunnyvale, Calif.) 3-5 days after cRNA injection as described in the section above. Oocytes were placed in a small-volume oocyte bath (Warner) and viewed with a dissection microscope. Chemicals were sourced from Sigma. Bath solution was (in mM): 96 NaCl, 4 KCl, 1 MgCl2, 1 CaCl2. 10 HEPES (pH 7.6). […] MTX (DMSO), sorbic acid (ethanol), and glutaconic acid (molecular grade H2O) were stored at −20° C. as 1 M stocks. Oleamide was stored as a 1 mM stock in ethanol at 4° C. Palmitic acid was conjugated with bovine serum albumin as a 1 mM stock and stored at −20° C. All compounds were diluted to working concentrations each experimental day. All compounds were introduced to the recording bath via gravity perfusion at a constant flow of 1 ml/min for 3 min prior to recording. Pipettes were of 1-2 MΩ resistance when filled with 3 M KCl. Currents were recorded in response to pulses between −80 and +40 mV at 20 mV intervals, or a single pulse to +40 mV, from a holding potential of −80 mV, to yield current-voltage relationships, current magnitude, and for quantifying activation rate. TEVC data analysis was performed with Clampfit10.2 (Molecular Devices) and Graphpad Prism software (GraphPad, San Diego, Calif., USA); values are stated as mean±SEM. Normalized tail currents were plotted versus prepulse voltage and fitted with a single Boltzmann function: […]
cRNA transcripts encoding human KCNQ2, KCNQ3, KCNQ4, KCNQ5 (Kv7.2-Kv7.5) were generated by in vitro transcription using the T7 polymerase mMessage mMachine kit (Thermo Fisher Scientific), after vector linearization, from cDNA sub-cloned into plasmids incorporating Xenopus laevis β-globin 5′ and 3′ UTRs flanking the coding region to enhance translation and cRNA stability. cRNA was quantified by spectrophotometry. Mutant KCNQ2 and KCNQ3 cDNAs were generated with site-directed mutagenesis using a QuikChange kit according to the manufacturer's protocol (Stratagene, San Diego, Calif.) and corresponding cRNAs prepared as above.

KCNQ2 = KCNQ2 (Homo sapiens, UniProt O43526); assay: TEVC of homomeric KCNQ2 expressed in Xenopus oocytes
Description: as §1
(§2) TEVC recording was performed at room temperature with an OC-725C amplifier (Warner Instruments, Hamden, Conn.) and pClamp10.2 software (Molecular Devices, Sunnyvale, Calif.) 3-5 days after cRNA injection as described in the section above. Oocytes were placed in a small-volume oocyte bath (Warner) and viewed with a dissection microscope. Chemicals were sourced from Sigma. Bath solution was (in mM): 96 NaCl, 4 KCl, 1 MgCl2, 1 CaCl2. 10 HEPES (pH 7.6). […] MTX (DMSO), sorbic acid (ethanol), and glutaconic acid (molecular grade H2O) were stored at −20° C. as 1 M stocks. Oleamide was stored as a 1 mM stock in ethanol at 4° C. Palmitic acid was conjugated with bovine serum albumin as a 1 mM stock and stored at −20° C. All compounds were diluted to working concentrations each experimental day. All compounds were introduced to the recording bath via gravity perfusion at a constant flow of 1 ml/min for 3 min prior to recording. Pipettes were of 1-2 MΩ resistance when filled with 3 M KCl. Currents were recorded in response to pulses between −80 and +40 mV at 20 mV intervals, or a single pulse to +40 mV, from a holding potential of −80 mV, to yield current-voltage relationships, current magnitude, and for quantifying activation rate. TEVC data analysis was performed with Clampfit10.2 (Molecular Devices) and Graphpad Prism software (GraphPad, San Diego, Calif., USA); values are stated as mean±SEM. Normalized tail currents were plotted versus prepulse voltage and fitted with a single Boltzmann function:
(§3) cRNA transcripts encoding human KCNQ2, KCNQ3, KCNQ4, KCNQ5 (Kv7.2-Kv7.5) were generated by in vitro transcription using the T7 polymerase mMessage mMachine kit (Thermo Fisher Scientific), after vector linearization, from cDNA sub-cloned into plasmids incorporating Xenopus laevis β-globin 5′ and 3′ UTRs flanking the coding region to enhance translation and cRNA stability. cRNA was quantified by spectrophotometry. Mutant KCNQ2 and KCNQ3 cDNAs were generated with site-directed mutagenesis using a QuikChange kit according to the manufacturer's protocol (Stratagene, San Diego, Calif.) and corresponding cRNAs prepared as above. Defolliculated stage V and VI Xenopus laevis oocytes (Ecocyte Bioscience, Austin, Tex.) were injected with KCNQ channel α subunit cRNAs (5-10 ng). The oocytes were incubated at 16° C. in Barth's saline solution (Ecocyte) containing penicillin and streptomycin, with daily washing, for 2-5 days prior to two-electrode voltage-clamp (TEVC) recording.
(§4) TEVC recording was performed at room temperature using a OC-725C amplifier (Warner Instruments, Hamden, Conn.) and pClamp8 software (Molecular Devices, Sunnyvale, Calif.) 2-5 days after cRNA injection as described in the section above. The oocytes were placed in a small-volume oocyte bath (Warner) and viewed with a dissection microscope. Unless otherwise stated, chemicals were sourced from Sigma. Bath solution was (in mM): 96 NaCl, 4 KCl, 1 MgCl2, 1 CaCl2, 10 HEPES (pH 7.6).

KCNQ3* (KCNQ3-A315T) = KCNQ3* (KCNQ3-A315T) (Homo sapiens, UniProt O43525, A315T); assay: TEVC of homomeric KCNQ3* expressed in Xenopus oocytes
Description: as §1, §2, §3, §4

KCNQ5 = KCNQ5 (Homo sapiens, UniProt Q9NR82); assay: TEVC of homomeric KCNQ5 expressed in Xenopus oocytes
Description: as §1, §2, §3, §4

In the case of CS(=O)(=O)N(CC(=O)O)c1cccc(F)c1 [3FMSG], the “effect on KCNQ2/3 gating kinetics” value (KCNQ2/3) is reported as “speeded KCNQ2/3 activation and slowed its deactivation”, the “tau of KCNQ2/3 current decrease during washout” value (KCNQ2/3; 100 μM, −60 mV) is reported as 39 ± 10 s and the “tau of KCNQ2/3 current increase during wash-in” value (KCNQ2/3; 100 μM, −60 mV) is reported as 15 ± 3 s. The EC50 (KCNQ2/3; Example 4, read-out: EC50, shift in voltage dependence of KCNQ2/3 activation (ΔV0.5act)) was 51 ± 21 nM, the “effect of tenfold excess (100 μM) on KCNQ2 activation by 2FPG (10 μM)” value (KCNQ2) was “subtly reduced the efficacy” and the “effect on KCNQ2 (in words)” value (KCNQ2) was “negligible effects”. The “relative Na+ permeability of KCNQ3* compared to K+” value (KCNQ3* (KCNQ3-A315T)) was “induces a similar increase in relative Na^+ permeability”, the EC50 (KCNQ3* (KCNQ3-A315T); Example 4, read-out: EC50, ΔV0.5act of KCNQ3*) was 18 ± 12 nM and the EC50 (KCNQ5; Example 4, read-out: EC50 of KCNQ5 activation) was 171 ± 112 nM.

CCCCCCCCC/C=C/C=O [(E)-2-dodecenal] was tested, and the “effect on KCNQ2/3 activity (in words)” value (KCNQ2/3) was “activated KCNQ2/3”, the “shift in voltage dependence of KCNQ2/3 activation” value (KCNQ2/3; 100 nM) was > 10 mV and the EC50 (KCNQ2/3; wild-type KCNQ2/3, read-out: EC50 of KCNQ2/3 activation by (E)-2-dodecenal) was 60 ± 20 nM. The EC50 (KCNQ2; read-out: EC50 of KCNQ2 activation by (E)-2-dodecenal) was 60 ± 10 nM and the “effect on KCNQ3* (in words)” value (KCNQ3* (KCNQ3-A315T)) was “insensitive”.

With CC(=O)c1c(O)c(C)c(O)c(Cc2c(O)c3c(c(C(=O)/C=C/c4ccccc4)c2O)OC(C)(C)C=C3)c1O [MTX, mallotoxin] the “effect on KCNQ2/3 gating kinetics” value (KCNQ2/3) was “speeded KCNQ2/3 activation and slowed deactivation”, the “effect on KCNQ2/3 at low dose” value (KCNQ2/3; 1 μM alone) was “negligible effects” and the “effect on voltage dependence of KCNQ2/3 activation, screen of M. oppositifolius leaf compounds” value (KCNQ2/3; 100 μM, MTX and palmitic acid 30 μM) was “negative-shifted”. The “effect on KCNQ2/3 at +40 mV” value (KCNQ2/3; +40 mV) was “little effect”, the “relative ion permeability of KCNQ2/3 compared to K+” value (KCNQ2/3; MTX 30 μM, 100 mM ion) was “increased relative permeability of KCNQ2/3 to Na^+ and Cs^+, and decreased permeability to Rb^+” and the “shift of V0.5 of KCNQ2/3 activation (ΔV0.5)” value (KCNQ2/3; RTG 10 μM, MTX 30 μM, IVA 500 μM, alone or in combination) was −17 mV. For the same molecule, the EC50 (KCNQ2/3; current at −60 mV, read-out: EC50 of KCNQ2/3 activation) was 11500 nM, the “time to plateau of KCNQ2/3 activation on wash-in” value (KCNQ2/3; −60 mV) was 5 min and the KCNQ2/3 current fold-increase (KCNQ2/3; −60 mV, 100 μM MTX) was “seven-fold”. For the same molecule, the KCNQ2/3 current fold-increase (KCNQ2/3; −60 mV, MTX 30 μM, IVA 500 μM alone or in combination) was “fivefold”, the “shift of midpoint voltage of KCNQ2 activation” value (KCNQ2; MTX 30 μM) was −24 mV and the EC50 (KCNQ2; −60 mV, read-out: EC50 of KCNQ2 activation) was 6400 nM. The “shift of midpoint voltage of KCNQ3* activation” value (KCNQ3* (KCNQ3-A315T); MTX 30 μM) was −9 mV, the EC50 (KCNQ3* (KCNQ3-A315T); −60 mV, read-out: EC50 of KCNQ3* activation) was 13000 nM and the “shift of midpoint voltage of KCNQ5 activation” value (KCNQ5; MTX 30 μM) was −14 mV. The KCNQ5 current fold-increase (KCNQ5; −60 mV, 100 μM) was “eight-fold” and the EC50 (KCNQ5; −60 mV, read-out: EC50 of KCNQ5 activation) was 67100 nM.

In the case of NCC1(CC(=O)O)CCCCC1 [gabapentin, reference compound], the “effect on KCNQ2/3 activity (in words)” value (KCNQ2/3) is reported as “potently activated”, the “effect on KCNQ2/3 gating kinetics” value (KCNQ2/3) is reported as “speeded KCNQ2/3 activation and slowed deactivation” and the “potency on KCNQ2/3, fold more potent than GABA” value (KCNQ2/3) is reported as 200 fold. The “shift in voltage dependence of KCNQ2/3 activation” value (KCNQ2/3; 1 μM gabapentin) was −9 mV, the “washout of effect on KCNQ2/3” value (KCNQ2/3; after 2 minutes) was < 50% and the EC50 (KCNQ2/3; current at −60 mV, read-out: EC50 for KCNQ2/3 activation) was 4.2 nM. For the same molecule, the “shift of membrane potential (EM) of KCNQ2/3-expressing oocytes” value (KCNQ2/3; unclamped oocytes) was > −10 mV, the “time to plateau of KCNQ2/3 current augmentation on wash-in” value (KCNQ2/3; −60 mV) was ~2 min and the KCNQ2/3 current fold-increase (KCNQ2/3; −60 mV, 10 nM) was 3.5 fold. The “effect on KCNQ2 (in words)” value (KCNQ2) was “insensitive”, the “effect on KCNQ3* (in words)” value (KCNQ3* (KCNQ3-A315T)) was “activated” and the “maximal fold increase in KCNQ3 current” value (KCNQ3* (KCNQ3-A315T); −60 mV) was 4 fold. The EC50 (KCNQ3* (KCNQ3-A315T); −60 mV, read-out: EC50 of KCNQ3* activation by gabapentin) was 5.3 nM, the “effect on KCNQ5 (in words)” value (KCNQ5) was “activated” and the “maximal fold increase in KCNQ5 current” value (KCNQ5; −60 mV) was 3 fold. For the same molecule, the EC50 (KCNQ5; −60 mV, read-out: EC50 of KCNQ5 activation by gabapentin) was 1.9 nM.

For NCC(=O)O [glycine, reference compound], the “effect on KCNQ2/3 activity (in words)” value (KCNQ2/3) was “nor does it activate KCNQ2/3; also recorded: no effect”, the “effect on KCNQ2 (in words)” value (KCNQ2) was “unable to open” and the “effect on KCNQ3* (in words)” value (KCNQ3* (KCNQ3-A315T)) was “no effects”. For the same molecule, the “effect on KCNQ5 (in words)” value (KCNQ5) was “no effects”.
